A word on the IC50: it is the concentration needed to halve the response being measured. Read a low IC50 as higher potency.

For five molecules, IC50 results are on record in patent US6271238A, “Acetamide derivatives and protease inhibitors” (Nippon Kayaku Kabushiki Kaisha, priority 1996, dated 2001).

Where a name gives a salt, the structure may show the parent alone.

This assay concerns guinea pig eosinophils. The assay can be described thus: Inhibitory action on eosinophils (release of active oxygen from guinea pig eosinophils). It counts as cell-based. Particulars: Cavia porcellus, Eosinophil, 5 min, PAF, luminol chemiluminescence for 5 minutes. The protocol:
Inhibitory activity on eosinophil activation
(A) Preparation of eosinophils
Polymyxin B (produced by Sigma) was administered intraperitoneally into a guinea pig (Hartley, male, 6-week-old) at a dosage of 1 mg once every week for 6 to 8 weeks. After the final administration of polymyxin B. 50 ml of PBS (phosphate-buffered saline) was injected into the intraperitoneal cavity of the guinea pig, and cells were recovered. The cells were centrifuged at 800 rpm for 5 minutes and the abdomen infiltration cells were collected as precipitates and then suspended in 1 ml of 40% Ficoll (40% Ficoll (produced by Pharmacia), HBSS (Hanks' balanced salt solution) and layered on a Ficoll discontinuous density gradient (40 to 90%). It was centrifuged at 1500 rpm for 40 minutes, and the eosinophil fraction was recovered. In this operation, eosinophils of 99% or more purity were usually obtained. Further, the cells were washed twice with RPMI 1640 medium (10% BSA (bovine serum albumin available from Boehringer Mannheim), suspended again at a predetermined density, and used in the objective experiment.
(B) Inhibitory action on eosinophils (inhibitory action on release of active oxygen from guinea pig eosinophils)
The eosinophils (99% or more purity) obtained by the Ficoll density gradient method in (A) above were suspended at a cell density of 4×10^5 in a buffer solution (0.136 M sodium chloride, 2.7 mM potassium chloride, 1.8 mM calcium chloride, 1.0 mM magnesium chloride, 11.9 mM sodium hydrogen carbonate, 5.5 mM D-glucose, 5.0 mM HEPES, 0.36 mM sodium dihydrogen phosphate, pH 7.2). Each drug (2 μl) and 180 μl of the cell suspension were put to a 96-well multi-well plate (for chemiluminescence measurement, white type) previously kept at 37° C., and incubated at 37° C. for 10 minutes. After incubation, 20 μl of PAF (platelet-activating factor) (5×10^-6 M) and 20 μl of a luminol solution were added to it and immediately examined for its chemiluminescence (Luminoskan Labosystem). The chemiluminescence for 5 minutes were measured to calculate 50% inhibitory concentration (IC50: μM).

On to `CC(=O)C(=O)C(Cc1cccc(F)c1)NC(=O)Cn1c(-c2ccccc2)ncc(N)c1=O` (centres unmarked) [Compound 52, 2-(5-Amino-6-oxo-2-phenyl-1,6-dihydropyrimidine-1-yl)-N-{1-(3-fluorophenyl)methyl-2,3-dioxo}butylacetamide], for which it took 26 µM to reach half-maximal inhibition (IC50).
The molecule `Nc1cnc(-c2ccccc2)n(CC(=O)NC(Cc2ccccc2)C(=O)C(=O)CCCn2ccccc2=O)c1=O` (centres unmarked) [Compound 73, 2-(5-Amino-6-oxo-2-phenyl-1,6-dihydropyrimidine-1-yl)-N-{2,3-dioxo-1-phenylmethyl-6-(2-oxo-1,2-dihydropyridine-1-yl)}hexylacetamide hydrochloride] showed an IC50 of 3 µM.
The molecule `Nc1cnc(-c2ccccc2)n(CC(=O)NC(Cc2ccccc2)C(=O)C(=O)CCCc2ccccc2)c1=O` (centres unmarked) [Compound 40] yielded an IC50 of 5.6 µM.
Molecule `CCOC(=O)CCCC(=O)C(=O)C(Cc1cccc(F)c1)NC(=O)Cn1c(-c2ccccc2)ncc(N)c1=O` (centres unmarked) [Compound 54] showed an IC50 of 62 µM.
`CCCCC(=O)C(=O)C(Cc1ccccc1)NC(=O)Cn1c(-c2ccccc2)ncc(N)c1=O` (centres unmarked) [Compound 44] gave an IC50 of 18 µM.
